Measurements as given in paper PMC4493460, “Increasing the Biological Stability Profile of a New Chemical Entity, UPEI-104, and Potential Use as a Neuroprotectant Against Reperfusion-Injury” (Brain Sciences, 2015).
“Also recorded” adds a separate entry of the source. Read-outs that look alike come from different tables or passages of the source. Values belong to the compound of their own block, whether it stands above or below them.

Assays:
[1] = set-up: method as in PMID 21172313; details: cited from earlier work
[2] = Stability in human plasma (Cerep, HPLC-MS/MS); assay type: in vitro ADME; details: 1.0E−06 M, 37 °C; for half-life at 1 µM: human, plasma, 0-120 min
Protocol: The detection method was HPLC-MS/MS. At the end of incubation at each of the time points, acetonitrile was added to the incubation mixture followed by centrifugation. Samples were analyzed by HPLC-MS/MS and peak areas were recorded for each analyte. The area of precursor compound remaining after each of the time points relative to the amount remaining at time zero, expressed as percent, was calculated. […] Further experimental detail may be found in [30].
Further experimental detail may be found in [32].

[3] = in vitro; details: for microsomal CLint at 100 nM / % Compound Remaining, 1st / % Compound Remaining, 2nd / % Compound Remaining, Mean / half-life at 100 nM: human, microsomes; for % Compound Remaining, 1st / % Compound Remaining, 2nd / % Compound Remaining, Mean: 100 nM
Protocol: Briefly, incubation was performed at 37 °C for times between 0 and 60 min as indicated. The detection method was HPLC-MS/MS. Intrinsic clearance from microsomes (S9, cryopreserved hepatocytes, recombinant CYP, recombinant UGT) was assayed. Metabolic stability, expressed as percent of the parent compound remaining, was calculated by comparing the peak area of the compound at the time point relative to that at time 0. The half-life (T1/2) was estimated from the slope of the initial linear range of the logarithmic curve of compound remaining (%) vs. time, assuming the first-order kinetics.
A solution of each test compound (1000 ng/mL or 10 μM) was prepared as described above and infused into the TSQ Quantum source via syringe pump at a constant rate. Full scan MS analysis was conducted and total ion current chromatograms and corresponding mass spectra were generated for each test compound in both positive and negative ionization modes. The precursor ions for MS/MS were selected from either the positive or the negative mass spectrum, as a function of the respective ion abundance. In addition, product ion MS/MS analysis was performed in order to determine the appropriate selected fragmentation reaction for use in quantitative analysis. The final reaction monitoring parameters were chosen to maximize the ability to quantify the test compound when present within a complex mixture of components. Following identification of the specific SRM transition to be used for each test compound, the detection parameters were optimized using the automated protocol in the TSQ Quantum Compound Optimization Workspace software package (Thermo Scientific, MA, USA). Finally, the chromatographic conditions to be used for LC-MS analysis were identified by injection and separation of the analyte on a suitable LC column and adjustment of the gradient conditions as necessary. Further experimental detail may be found in [32].
Mobile Phase B: 6 mM ammonium formate/3 mM formic acid in water/acetonitryl (ACN; 1/9, v/v). Column: Hypersil GOLD DASH HTS, 2.1 × 20 mm, 3 micron (Thermo Scientific, MA, USA; see Table 1 for details).

[4] = system: infarct volume following tMCAO; set-up: method as in PMID 22277933; details: cited from earlier work
[5] = system: NADPH oxidase; set-up: method as in PMID 22277933, PMID 18511205; details: compared with apocynin alone; cited from earlier work
[6] = set-up: method as in PMID 22277933; details: animals injected i.v.; immediately, as early as 1 min after injection; previous work; cited from earlier work
[7] = system: infarct volume following tMCAO; test: Transient middle cerebral artery occlusion (tMCAO) ischemia-reperfusion injury, infarct volume by TTC staining; assay type: in vivo, Sprague-Dawley rats; details: rats, 30 min occlusion, 5.5 h reperfusion
Protocol: All surgical procedures described below were approved by the University of Prince Edward Island Animal Care Committee and were in compliance with the requirements of the Canadian Council on Animal Care. Our surgical protocol has been described previously. Briefly, rats were anaesthetized with sodium thiobutabarbital (Inactin, Sigma Aldrich, St. Louis, MO, USA; 100 mg/kg, intraperitoneal; i.p.) and kept warm on a heating pad maintained at 37 ± 1 °C. A venous cannula was inserted into the right femoral vein to allow for all drug injections and supplemental anaesthesia, if required. Rats were then transferred to a stereotaxic frame to allow for surgical access to the right middle cerebral artery (MCA). As detailed in our previous publication, we used a 3-point occlusion of the MCA by inserting suture under the vessel and applying pressure, by gently lifting the sutures, to occlude flow by 100% (as confirmed by laser Doppler flowmetry). The period of occlusion lasted for 30 min, followed by a 5.5 h period of reperfusion, which was accomplished by removal of these sutures (transient ischemia model, tMCAO). […] Sections were then scanned (both sides) the next day, and infarct area was measured using imaging software (Image J; Scion Corporation, Frederick, MD, USA). […] Data was analyzed by an investigator blinded to the treatment groups. […]

[8] = system: global ischemia; set-up: method as in PMID 16650838; details: gerbils, given 5 min following 5 min of global ischemia, assessed four days later; cited from earlier work
[9] = system: infarct volume, MCAO; set-up: method as in PMID 1299626, PMID 19417757, PMID 21946070, PMID 19175604, PMID 17697529; details: cited from earlier work

SMILES: O=C(O)CCCCC1CCSS1 (stereo not drawn) [LA, α-Lipoic acid]
Neuroprotection ([1]; 5 mg/kg (most effective dose), administered just prior to the beginning of reperfusion): did not result in significant neuroprotection
Neuroprotection ([1]; 5 mg/kg, administered prior to both occlusion and reperfusion): produced neuroprotection

SMILES: CC(C)[N+](C)(CCOC(=O)C1c2ccccc2Oc2ccccc21)C(C)C [Propantheline, reference compound]
half-life at 1 µM ([2]; read-out: Half-Life, 1st): 7.2 min
half-life at 1 µM ([2]; read-out: Half-Life, 2nd): 7.2 min
half-life at 1 µM ([2]; read-out: Half-Life, Mean): 7 min

SMILES: CCCOc1cc(N)ccc1C(=O)OCCN(CC)CC [Propoxycaine, reference compound]
half-life at 1 µM ([2]; read-out: Half-Life, 1st): < 30 min
half-life at 1 µM ([2]; read-out: Half-Life, 2nd): < 30 min
half-life at 1 µM ([2]; read-out: Half-Life, Mean): < 30 min

SMILES: COc1cc(C(C)=O)ccc1O [apocynin, 4-hydroxy-3-methoxyacetophenone]
Neuronal degeneration, neuronal death and microglial activation [8]: decreased neuronal degeneration and delayed neuronal death and microglial activation
Infarct volume ([9]; administered during occlusion of the middle cerebral artery): attenuation of infarct volume
Infarct volume benefit ([9]; administration delayed following the onset of reperfusion): benefits were lost

More lines, main results first:

microsomal CLint at 100 nM [3]: 6030 µL/min/mg
% Compound Remaining, 1st ([3]; 0 h): 100.0%
% Compound Remaining, 2nd ([3]; 0 h): 100.0%
% Compound Remaining, Mean ([3]; 0 h): 100%
% Compound Remaining, 1st ([3]; 0.25 h): 0.0%
% Compound Remaining, 2nd ([3]; 0.25 h): 0.0%
% Compound Remaining, Mean ([3]; 0.25 h): 0%
% Compound Remaining, 1st ([3]; 0.5 h): 0.0%
% Compound Remaining, 2nd ([3]; 0.5 h): 0.0%
% Compound Remaining, Mean ([3]; 0.5 h): 0%
% Compound Remaining, 1st ([3]; 0.75 h): 0.0%
% Compound Remaining, 2nd ([3]; 0.75 h): 0.0%
% Compound Remaining, Mean ([3]; 0.75 h): 0%
% Compound Remaining, 1st ([3]; 1 h): 0.0%
% Compound Remaining, 2nd ([3]; 1 h): 0.0%
% Compound Remaining, Mean ([3]; 1 h): 0%
half-life at 100 nM ([3]; 1st): 1.1 min
half-life at 100 nM ([3]; 2nd): < 15 min
half-life at 100 nM ([3]; Mean): ~1 min
% Compound Remaining, 1st ([2]; incubation 0 min): 100.0%
% Compound Remaining, 2nd ([2]; incubation 0 min): 100.0%
% Compound Remaining, Mean ([2]; incubation 0 min): 100%
% Compound Remaining, 1st ([2]; incubation 30 min): 92.7%
% Compound Remaining, 2nd ([2]; incubation 30 min): 126.6%
% Compound Remaining, Mean ([2]; incubation 30 min): 110%
% Compound Remaining, 1st ([2]; incubation 60 min): 100.7%
% Compound Remaining, 2nd ([2]; incubation 60 min): 116.0%
% Compound Remaining, Mean ([2]; incubation 60 min): 108%
% Compound Remaining, 1st ([2]; incubation 90 min): 99.5%
% Compound Remaining, 2nd ([2]; incubation 90 min): 111.2%
% Compound Remaining, Mean ([2]; incubation 90 min): 105%
% Compound Remaining, 1st ([2]; incubation 120 min): 109.9%
% Compound Remaining, 2nd ([2]; incubation 120 min): 140.1%
% Compound Remaining, Mean ([2]; incubation 120 min): 125%
half-life at 1 µM ([2]; read-out: Half-Life, 1st): > 120 min
half-life at 1 µM ([2]; read-out: Half-Life, 2nd): > 120 min
half-life at 1 µM ([2]; read-out: Half-Life, Mean): > 120 min
SMILES: COc1cc(C(C)=O)ccc1OC(=O)CCCCC1CCSS1 (centres unmarked) [UPEI-100]
Flags (detection of test compound in the assay matrix) [3]: not detected in the assay at any time point
Dose at which infarct volume was reduced ([4]; same in vivo model of reperfusion-injury, previously observed): 0.1 mg/kg
Dose for equivalent neuroprotection compared to each parent compound (lipoic acid, apocynin), fold lower ([4]; tMCAO, previous work): 100 fold
Inhibition of NADPH oxidase [5]: inhibited NADPH oxidase
Detection in tissue samples / central nervous system following intravenous injection [6]: undetectable; also recorded: unable to detect; also recorded: could not be detected

microsomal CLint at 100 nM [3]: 963 µL/min/mg
half-life at 100 nM ([3]; 1st): 7.3 min
half-life at 100 nM ([3]; 2nd): 7.1 min
half-life at 100 nM ([3]; Mean): ~7 min
% Compound Remaining, 1st ([2]; incubation 0 min): 100.0%
% Compound Remaining, 2nd ([2]; incubation 0 min): 100.0%
% Compound Remaining, Mean ([2]; incubation 0 min): 100%
% Compound Remaining, 1st ([2]; incubation 30 min): 89.3%
% Compound Remaining, 2nd ([2]; incubation 30 min): 112.0%
% Compound Remaining, Mean ([2]; incubation 30 min): 101%
% Compound Remaining, 1st ([2]; incubation 60 min): 95.5%
% Compound Remaining, 2nd ([2]; incubation 60 min): 98.6%
% Compound Remaining, Mean ([2]; incubation 60 min): 97%
% Compound Remaining, 1st ([2]; incubation 90 min): 82.9%
% Compound Remaining, 2nd ([2]; incubation 90 min): 76.4%
% Compound Remaining, Mean ([2]; incubation 90 min): 80%
% Compound Remaining, 1st ([2]; incubation 120 min): 77.2%
% Compound Remaining, 2nd ([2]; incubation 120 min): 90.1%
% Compound Remaining, Mean ([2]; incubation 120 min): 84%
half-life at 1 µM ([2]; read-out: Half-Life, 1st): 352 min
half-life at 1 µM ([2]; read-out: Half-Life, 2nd): 351 min
half-life at 1 µM ([2]; read-out: Half-Life, Mean): > 120 min
SMILES: COc1cc(C(C)=O)ccc1OCCCCCC1CCSS1 (centres unmarked) [UPEI-104]
Infarct volume vs vehicle group ([7]; 0.1 mg/kg i.v. 30 min prior to MCA occlusion, p < 0.05): significantly lower
Effect on infarct volume as a function of dose ([7]; 0.001–0.1 mg/kg i.v. 30 min prior to MCA occlusion): dose-dependent reduction in infarct volume
